Results published in patent publication US12427183B2, “Methods of treating cancer, infectious disease, and autoimmune disease using chemokines” (New York Society for the Relief of the Ruptured and …, priority 2016, dated 2025).

Key:
Assay type in all cases: cell-based, human
[1] = tested on: PBMCs and pDC-depleted PBMCs; assay: IFN-α production in PBMCs and pDC-depleted PBMCs cultured with CpG and chemokines (ELISA); conditions: CpG 0.25 μM + chemokine 10 μg/ml
Protocol: PBMCs were prepared using Ficoll-Paque density gradient (GE Healthcare) as previously described (Guiducci et al., 2008).
pDCs were isolated from PBMCs by positive selection using BDCA4-MicroBead Kit as previously described (Guiducci et al., 2008). pDC-depleted PBMC were prepared by removing BDCA4-positive cells from PBMC using microbeads.
5×10^5 PBMCs or pDC-depleted PBMCs were cultured in 96 wells plate and stimulated with 0.25 μM CpG DNA with or without 10 μg/ml CXCL4, CXCL10, CXCL12 or CCL5. Freshly isolated pDCs were resuspended at 5×10^4 cells/100 μl RPMI 1640 medium (Gibco) and stimulated with the 0.25 μM CpG with/without 10 μg/ml indicated chemokines. The supernatant was harvested after 18 h and IFN-α was measured by ELISA.
As shown above, CXCL4 can increase IFN-α production by TLR9-activated pDCs. Thus it was tested whether other chemokines may impact TLR9 signaling in pDCs. Purified pDCs were left unstimulated (Unstim.) or cultured with CpG (0.25 μM) alone or with the indicated chemokines at 10 μg/ml. IFN-α secretion was quantified by ELISA. Strikingly, it was observed that a set of chemokines, including CXCL4, CXL10, CXCL12 and CCL5, were able to superinduce TLR9-induced response by pDCs (FIG. 18A), while they had no effect when used alone (results not shown). […] This also raised questions as to the specificity and mechanism for this effect. First, as other DNA sensors have been described to induce IFN-α in immune cells (Barrat et al., 2016), it was tested to see if these chemokines altered the specificity of the CpGs for TLR9 and if the IFN-α response was restricted to pDCs. Total PBMCs or PBMCs where pDCs were depleted (PBMC-ΔpDCs) were incubated with CpGs and either CXCL4, CXCL10, CXCL12 or CCL5 and IFN-α production was quantified by ELISA.

[2] = tested on: TLR8-mediated activation of SSc pDCs; assay: TLR8 activation assay of pDCs from SSc patients (ORN-8L with or without CXCL4); conditions: ORN-8L 200 μg/ml + CXCL4, 24 hours
Protocol: PBMCs were prepared using Ficoll-Paque density gradient from fresh blood under internal Institutional Review Board-approved protocols. pDCs were isolated as previously described (Guiducci et al. 2008) using either using negative depletion (Miltenyi Biotech) or following cell sorting using a BD IFNLUX cell sorter. As part of the gating strategy, neutrophils were excluded by FSC/SSC and cells positive for CD14 (CD3 and CD19 as well) were first excluded in order to prevent the contamination by TLR8 positive cells and then positively gated on HLA-DR, CD123 and BDCA4 to purify the pDCs. All BDCA4+ cells also express BDCA2 (results not shown). As a result, pure pDCs were obtained and no markers for neutrophils (CD66) or myeloid cells were found by PCR. B cells were FACS sorted as CD19+ and monocytes as CD14+ cells. PBMCs were depleted of pDCs using BDCA4 beads from Miltenyi. pDCs were cultured at 10,000-30,000 cells per well in a 96-round bottom plate and incubated at 37° C., 5% CO2 and 95% humidity. After 24 hours of culture, the supernatant was collected for ELISA or Mutiplex cytokine assays. In some culture conditions, cells were cultured with the PI3Kδ inhibitor, CAL-101 (Selleck chemicals) for 24 hours. The RNA-based TLR8 agonist, ORN8-L previously described (Guidacci et al. 2013) was synthetized by Chemgenes Corporation. For the TLR8 activation assay, pDCs were incubated in complete media alone, 200 μg/ml ORN8-L in complete media or 200 μg/ml ORN8-L+ 10 μg/ml CXCL4 (R&D systems).
Supernatant from pDCs 24 hour culture was used for quantification of secreted chemokines and cytokines and measured with the use of an enzyme-linked immunosorbent assay (ELISA) or Luminex multiplex-beads immunoassay. CXCL4 ELISA (Ray Biotech) and IFNα, IP-10, IL-6, TNF Luminex assay (Millipore) was performed according to the manufacturer's protocol. Due to the variability in the number of cells obtained from the different patients and so we could compare the values across donors, all results were normalized to 10,000 cells. Of note, for all donors, pDCs were plated between 10,000-30,000 cells.
When purified pDCs from HDs or SSc patients were cultured with CXCL4 alone ([…]), there was no effect on IFN production.

[3] = tested on: TLR7-mediated activation of pDCs; conditions: CXCL4 10 μg/ml; TLR7 agonist at suboptimal dose; similar in HDs and SSc patients

## CXCL4: small chemokine of the CXC family, 70-amino acid protein released from alpha-granules of activated platelets
[1]
  IFN-α production in absence of the pDCs (PBMC-ΔpDCs versus total PBMCs): dramatic decrease
[2]
  IL-6 production in response to TLR8: no effect
  TNF production in response to TLR8: no effect
[2]; p<0.001
  production of IFN-α in response to TLR8: significantly increased
  production of IP-10 in response to TLR8: significantly increased
[3]
  TLR7 response (IFN-α) of pDCs: little to no effect
